This is an account of results in US12312332B2 (Merck Sharp & Dohme LLC., priority 2019, dated 2025).

In the assay the target is T1, human OX2R (Homo sapiens, UniProt O43614).
T1 construct: expressed in transfected cells; host or cells: Chinese hamster ovary (CHO) cells, kept under G418 selection
T1 sequence (O43614 1-444): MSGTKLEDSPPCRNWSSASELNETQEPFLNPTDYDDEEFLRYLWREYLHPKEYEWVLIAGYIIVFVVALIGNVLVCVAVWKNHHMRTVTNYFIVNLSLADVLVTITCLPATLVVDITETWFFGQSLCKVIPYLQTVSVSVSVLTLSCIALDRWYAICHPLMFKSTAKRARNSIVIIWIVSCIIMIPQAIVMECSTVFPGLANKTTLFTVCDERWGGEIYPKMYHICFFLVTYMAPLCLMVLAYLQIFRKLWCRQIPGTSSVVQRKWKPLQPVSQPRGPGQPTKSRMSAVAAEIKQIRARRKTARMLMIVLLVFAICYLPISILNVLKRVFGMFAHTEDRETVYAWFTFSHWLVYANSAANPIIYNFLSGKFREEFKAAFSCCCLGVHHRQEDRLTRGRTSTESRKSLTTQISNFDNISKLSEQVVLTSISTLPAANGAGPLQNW
Nature of the assay: IPOne (IP-One) orexin receptor agonist assay in CHO cells expressing human OX2R. The settings on record: for EC50: CHO cells expressing human OX2R, IP-One detection, 2 hours incubation, four parameter logistic fit, read-out: OX2R Potency, EC50; for % max agonist effect (Emax): human OX2R, percentage of sample raw value/mean max effect (reference compound at 1 uM with 100% activity). The format is cell-based. The text has this:
The utility of the compounds in accordance with the present invention as orexin receptor OX1R and/or OX2R agonists may be readily determined without undue experimentation by methodology well known in the art. Both the OX1R and/or OX2R G-coupled protein receptors (GPCRs) couple through the Gaq signaling pathway, which ultimately promotes calcium mobilization via inositol triphosphate (IP3) production. […] The utility of the compounds in accordance with the present invention as orexin receptor OX1R and/or OX2R agonists may be determined utilizing this assay.
In a typical experiment, the OX1 and OX2 receptor agonist activity is determined in accordance with the following general experimental method. Chinese hamster ovary (CHO) cells expressing human OX1R and/or the human OX2R were grown in Iscove's modified DMEM containing glutaMAX™, 1% G418, 100 U/mL penicillin, 100 μg/mL streptomycin and 10% heat-inactivated qualified fetal bovine serum (FBS). […] During this incubation, IP-one detection reagents were prepared (38:1:1 lysis buffer:D2:AB-cryptate reagents).
For each compound, data were fit to a four parameter logistic fit (ActivityBase software) and the EC50 was reported as the inflection point of the resulting curve. Percent effect for each test compound was determined as the percentage of sample raw value/mean max effect, where the mean max effect was derived from the mean raw value of 32 control wells per assay plate (using Orexin A (cat #003-30) at 1 μM for human OX1R and a reference compound at 1 uM with 100% activity previously established by comparison to Orexin A for human OX2R). The intrinsic orexin receptor agonist activity of a compound which may be used in the present invention may be determined by these assays.

Some results are limits rather than exact numbers.

On to `CS(=O)(=O)N[C@H]1CCN(c2cncnc2)[C@H]1CO[C@H]1CC[C@@H](c2ccccc2)CC1` [Example 42, N-((2R,3S)-2-((((CIS)-4-phenylcyclohexyl)oxy)methyl)-1-(pyrimidin-5-yl)pyrrolidin-3-yl)methanesulfonamide], for which the 50% effective concentration (EC50) (in general, the concentration that produces a half-maximal response) amounted to 0.134 µM and the “% max agonist effect (Emax)” value was determined as 100.9%.

Take `CS(=O)(=O)N[C@H]1CCN(c2ccnc(CO)c2)[C@H]1CO[C@H]1CC[C@@H](c2ccccc2)CC1` [Example 43, N-((2R,3S)-1-(2-(hydroxymethyl)pyridin-4-yl)-2-((((CIS)-4-phenylcyclohexyl)oxy)methyl)pyrrolidin-3-yl)methanesulfonamide]: the EC50 was found to be 3.54 µM and the “% max agonist effect (Emax)” value is listed as 90.4%.

Take `CC(C)(O)c1cc(N2CC[C@H](NS(C)(=O)=O)[C@@H]2CO[C@H]2CC[C@@H](c3ccccc3)CC2)ccn1` [Example 44, N-((2R,3S)-1-(2-(2-hydroxypropan-2-yl)pyridin-4-yl)-2-((((CIS)-4-phenylcyclohexyl)oxy)methyl)pyrrolidin-3-yl)methanesulfonamide]: the EC50 is greater than 10 µM and the “% max agonist effect (Emax)” value worked out at 22.0%.

Take `Cc1cc(N2CC[C@H](NS(C)(=O)=O)[C@@H]2CO[C@H]2CC[C@@H](c3ccccc3)CC2)cnc1CO` [Example 45, N-((2R,3S)-1-(6-(hydroxymethyl)-5-methylpyridin-3-yl)-2-((((CIS)-4-phenylcyclohexyl)oxy)methyl)pyrrolidin-3-yl)methanesulfonamide]: the EC50 came out at 1.41 µM and the “% max agonist effect (Emax)” value turned out to be 97.2%.

With `CS(=O)(=O)N[C@H]1CCN(c2cc(C(F)(F)F)ncn2)[C@H]1CO[C@H]1CC[C@@H](c2ccccc2)CC1` [Example 46, N-((2R,3S)-2-((((CIS)-4-phenylcyclohexyl)oxy)methyl)-1-(6-(trifluoromethyl)pyrimidin-4-yl)pyrrolidin-3-yl)methanesulfonamide], the 50% effective concentration (EC50) was greater than 10 µM and the “% max agonist effect (Emax)” value worked out at 43.4%.

`CS(=O)(=O)N[C@H]1CCN(c2cncc(O)c2)[C@H]1CO[C@H]1CC[C@@H](c2ccccc2)CC1` [Example 47, N-((2R,3S)-1-(5-hydroxypyridin-3-yl)-2-((((CIS)-4-phenylcyclohexyl)oxy)methyl)pyrrolidin-3-yl)methanesulfonamide]: the EC50 is 0.009 µM and the “% max agonist effect (Emax)” value was determined as 101.4%.

For `Cc1nccc(N2CC[C@H](NS(C)(=O)=O)[C@@H]2CO[C@H]2CC[C@@H](c3ccccc3)CC2)n1` [Example 48, N-((2R,3S)-1-(2-methylpyrimidin-4-yl)-2-((((CIS)-4-phenylcyclohexyl)oxy)methyl)pyrrolidin-3-yl)methanesulfonamide], the EC50 worked out at 6.83 µM and the “% max agonist effect (Emax)” value was determined as 77.3%.

On to `CS(=O)(=O)N[C@H]1CCN(c2cncc(CO)c2)[C@H]1CO[C@H]1CC[C@@H](c2ccccc2)CC1` [Example 49, N-((2R,3S)-1-(5-(hydroxymethyl)pyridin-3-yl)-2-((((CIS)-4-phenylcyclohexyl)oxy)methyl)pyrrolidin-3-yl)methanesulfonamide], for which the EC50 worked out at 0.217 µM and the “% max agonist effect (Emax)” value was determined as 99.6%.

Take `CS(=O)(=O)N[C@H]1CCN(c2cncc(C(F)(F)F)c2)[C@H]1CO[C@H]1CC[C@@H](c2ccccc2)CC1` [Example 50, N-((2R,3S)-2-((((CIS)-4-phenylcyclohexyl)oxy)methyl)-1-(5-(trifluoromethyl)pyridin-3-yl)pyrrolidin-3-yl)methanesulfonamide]: the EC50 came to 0.944 µM and the “% max agonist effect (Emax)” value is 95.1%.

As for `COc1ccncc1N1CC[C@H](NS(C)(=O)=O)[C@@H]1CO[C@H]1CC[C@@H](c2ccccc2)CC1` [Example 51, N-((2R,3S)-1-(4-methoxypyridin-3-yl)-2-((((CIS)-4-phenylcyclohexyl)oxy)methyl)pyrrolidin-3-yl)methanesulfonamide], the EC50 was 0.0142 µM and the “% max agonist effect (Emax)” value was 100.3%.

On to `CS(=O)(=O)N[C@H]1CCN(c2cncc(OC(F)F)c2)[C@H]1CO[C@H]1CC[C@@H](c2ccccc2)CC1` [Example 52, N-((2R,3S)-1-(5-(difluoromethoxy)pyridin-3-yl)-2-((((CIS)-4-phenylcyclohexyl)oxy)methyl)pyrrolidin-3-yl)methanesulfonamide], for which the EC50 was 0.649 µM and the “% max agonist effect (Emax)” value is recorded as 99.2%.

`COc1ccc(N2CC[C@H](NS(C)(=O)=O)[C@@H]2CO[C@H]2CC[C@@H](c3ccccc3)CC2)cn1` [Example 53, N-((2R,3S)-1-(6-methoxypyridin-3-yl)-2-((((CIS)-4-phenylcyclohexyl)oxy)methyl)pyrrolidin-3-yl)methanesulfonamide]: the EC50 came out at 0.223 µM and the “% max agonist effect (Emax)” value was 100.6%.

`COc1cc(N2CC[C@H](NS(C)(=O)=O)[C@@H]2CO[C@H]2CC[C@@H](c3ccccc3)CC2)cnc1OC` [Example 54, N-((2R,3S)-1-(5,6-dimethoxypyridin-3-yl)-2-((((CIS)-4-phenylcyclohexyl)oxy)methyl)pyrrolidin-3-yl)methanesulfonamide]: the EC50 turned out to be 0.782 µM and the “% max agonist effect (Emax)” value was 98.9%.

`COc1ncc(N2CC[C@H](NS(C)(=O)=O)[C@@H]2CO[C@H]2CC[C@@H](c3ccccc3)CC2)cc1C` [Example 55, N-((2R,3S)-1-(6-methoxy-5-methylpyridin-3-yl)-2-((((CIS)-4-phenylcyclohexyl)oxy)methyl)pyrrolidin-3-yl)methanesulfonamide]: the EC50 worked out at 2.38 µM and the “% max agonist effect (Emax)” value is given as 91.4%.

On to `CS(=O)(=O)N[C@H]1CCN(c2ccncc2CO)[C@H]1CO[C@H]1CC[C@@H](c2ccccc2)CC1` [Example 56, N-((2R,3S)-1-(3-(hydroxymethyl)pyridin-4-yl)-2-((((CIS)-4-phenylcyclohexyl)oxy)methyl)pyrrolidin-3-yl)methanesulfonamide], for which the EC50 was greater than 10 µM and the “% max agonist effect (Emax)” value is 61.6%.

On to `CS(=O)(=O)N[C@H]1CCN(c2ccncc2)[C@H]1CO[C@H]1CC[C@@H](c2ccccc2)CC1` [Example 57, N-((2R,3S)-2-((((CIS)-4-phenylcyclohexyl)oxy)methyl)-1-(pyridin-4-yl)pyrrolidin-3-yl)methanesulfonamide], for which the EC50 was determined as 4.05 µM and the “% max agonist effect (Emax)” value was determined as 87.6%.

For `CS(=O)(=O)N[C@H]1CCN(c2ccc(OC(F)F)nc2)[C@H]1CO[C@H]1CC[C@@H](c2ccccc2)CC1` [Example 58, N-((2R,3S)-1-(6-(difluoromethoxy)pyridin-3-yl)-2-((((CIS)-4-phenylcyclohexyl)oxy)methyl)pyrrolidin-3-yl)methanesulfonamide], the EC50 worked out at 0.162 µM and the “% max agonist effect (Emax)” value was 100.9%.

Turning to `COc1cc(N2CC[C@H](NS(C)(=O)=O)[C@@H]2CO[C@H]2CC[C@@H](c3ccccc3)CC2)ccn1` [Example 59, N-((2R,3S)-1-(2-methoxypyridin-4-yl)-2-((((CIS)-4-phenylcyclohexyl)oxy)methyl)pyrrolidin-3-yl)methanesulfonamide], the EC50 came out at 2.86 µM and the “% max agonist effect (Emax)” value is 87.2%.

As to `Cc1ncc(N2CC[C@H](NS(C)(=O)=O)[C@@H]2CO[C@H]2CC[C@@H](c3ccccc3)CC2)cn1` [Example 60, N-((2R,3S)-1-(2-methylpyrimidin-5-yl)-2-((((CIS)-4-phenylcyclohexyl)oxy)methyl)pyrrolidin-3-yl)methanesulfonamide], the EC50 was 0.251 µM and the “% max agonist effect (Emax)” value is on record as 100.0%.

In the case of `CC(C)(O)c1ccc(N2CC[C@H](NS(C)(=O)=O)[C@@H]2CO[C@H]2CC[C@@H](c3ccccc3)CC2)cn1` [Example 61, N-((2R,3S)-1-(6-(2-hydroxypropan-2-yl)pyridin-3-yl)-2-((((CIS)-4-phenylcyclohexyl)oxy)methyl)pyrrolidin-3-yl)methanesulfonamide], the EC50 came to 0.0383 µM and the “% max agonist effect (Emax)” value is 101.3%.

Take `Cc1cncc(N2CC[C@H](NS(C)(=O)=O)[C@@H]2CO[C@H]2CC[C@@H](c3ccccc3)CC2)n1` [Example 62, N-((2R,3S)-1-(6-methylpyrazin-2-yl)-2-((((CIS)-4-phenylcyclohexyl)oxy)methyl)pyrrolidin-3-yl)methanesulfonamide]: the concentration for a half-maximal effect (EC50) was 0.33 µM and the “% max agonist effect (Emax)” value turned out to be 100.6%.
